From patent US12568972B2, “Pyridazinol compounds and derivatives, preparation methods, herbicidal compositions and applications thereof” (Qingdao Kingagroot Chemical Compound Co., Ltd., priority 2018, dated 2026)

Columns and labels:
Assay in all cases: Post-emergence test, weed control effect
Type in all cases: in vivo
Conditions in all cases: after 3 weeks
[1] = tested on: Amaranthus retroflexus
Procedure, shortened: (§1)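 Greenhouse pots, soil-sown, 0.5-2 cm cover; foliar spray at 2-3 leaf stage (2-3 wk post-sowing); cpd in acetone + Tween-80, water-diluted, + 80% veg. oil methyl ester synergist 1500 g/ha; 3 wk culture; fresh-wt inhibition graded 0-10.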

[2] = tested on: Veronica polita
Procedure, shortened: as §1

[3] = tested on: Rorippa indica
Procedure, shortened: as §1

[4] = tested on: Chenopodiaceae
Procedure, shortened: as §1

O=[N+]([O-])c1ccc(Cl)c(-c2nnc(C(F)(F)F)cc2O)c1 [Compound 69]
10: weed control effect (activity level), Amaranthus retroflexus ([1]; dose 1000 g/ha) | weed control effect (activity level), Veronica polita ([2]; dose 1000 g/ha) | weed control effect (activity level), Rorippa indica ([3]; dose 1000 g/ha) | weed control effect (activity level), Chenopodiaceae ([4]; dose 1000 g/ha)

COc1ccc(Cl)c(-c2nnc(C(F)(F)F)cc2O)c1 [Compound 70]
10: weed control effect (activity level), Amaranthus retroflexus ([1]; dose 1000 g/ha) | weed control effect (activity level), Veronica polita ([2]; dose 1000 g/ha) | weed control effect (activity level), Rorippa indica ([3]; dose 1000 g/ha) | weed control effect (activity level), Chenopodiaceae ([4]; dose 1000 g/ha)

Cc1cc(Cl)ccc1-c1nnc(C(F)(F)F)cc1O [Compound 71]
10: weed control effect (activity level), Amaranthus retroflexus ([1]; dose 1000 g/ha) | weed control effect (activity level), Veronica polita ([2]; dose 1000 g/ha) | weed control effect (activity level), Rorippa indica ([3]; dose 1000 g/ha) | weed control effect (activity level), Chenopodiaceae ([4]; dose 1000 g/ha)

Cc1cc(-c2nnc(C(F)(F)F)cc2O)ccc1Cl [Compound 72]
10: weed control effect (activity level), Amaranthus retroflexus ([1]; dose 1000 g/ha) | weed control effect (activity level), Veronica polita ([2]; dose 1000 g/ha) | weed control effect (activity level), Rorippa indica ([3]; dose 1000 g/ha) | weed control effect (activity level), Chenopodiaceae ([4]; dose 1000 g/ha)

Cc1ccc(-c2nnc(C(F)(F)F)cc2O)c(C)c1 [Compound 77]
10: weed control effect (activity level), Amaranthus retroflexus ([1]; dose 2000 g/ha) | weed control effect (activity level), Veronica polita ([2]; dose 2000 g/ha) | weed control effect (activity level), Rorippa indica ([3]; dose 2000 g/ha) | weed control effect (activity level), Chenopodiaceae ([4]; dose 2000 g/ha)

CCOc1ccc(F)c(-c2nnc(C(F)(F)F)cc2O)c1F [Compound 81]
10: weed control effect (activity level), Amaranthus retroflexus ([1]; dose 1000 g/ha) | weed control effect (activity level), Veronica polita ([2]; dose 1000 g/ha) | weed control effect (activity level), Rorippa indica ([3]; dose 1000 g/ha) | weed control effect (activity level), Chenopodiaceae ([4]; dose 1000 g/ha)

Cc1ccc(Cl)c(-c2nnc(C(F)(F)F)cc2O)c1F [Compound 82]
10: weed control effect (activity level), Amaranthus retroflexus ([1]; dose 1000 g/ha) | weed control effect (activity level), Veronica polita ([2]; dose 1000 g/ha) | weed control effect (activity level), Rorippa indica ([3]; dose 1000 g/ha) | weed control effect (activity level), Chenopodiaceae ([4]; dose 1000 g/ha)

CCCOc1ccc(-c2nnc(C(F)(F)F)cc2O)cc1 [Compound 83]
10: weed control effect (activity level), Amaranthus retroflexus ([1]; dose 1000 g/ha) | weed control effect (activity level), Veronica polita ([2]; dose 1000 g/ha) | weed control effect (activity level), Rorippa indica ([3]; dose 1000 g/ha) | weed control effect (activity level), Chenopodiaceae ([4]; dose 1000 g/ha)

Oc1cc(C(F)(F)F)nnc1-c1cccc(C(F)(F)F)c1 [Compound 92]
10: weed control effect (activity level), Amaranthus retroflexus ([1]; dose 1000 g/ha) | weed control effect (activity level), Veronica polita ([2]; dose 1000 g/ha) | weed control effect (activity level), Rorippa indica ([3]; dose 1000 g/ha) | weed control effect (activity level), Chenopodiaceae ([4]; dose 1000 g/ha)

COc1ccc(-c2nnc(C(F)(F)F)cc2O)cc1 [Compound 93]
10: weed control effect (activity level), Amaranthus retroflexus ([1]; dose 1000 g/ha) | weed control effect (activity level), Veronica polita ([2]; dose 1000 g/ha) | weed control effect (activity level), Rorippa indica ([3]; dose 1000 g/ha) | weed control effect (activity level), Chenopodiaceae ([4]; dose 1000 g/ha)

COc1ccccc1-c1nnc(C(F)(F)F)cc1O [Compound 94]
10: weed control effect (activity level), Amaranthus retroflexus ([1]; dose 1000 g/ha) | weed control effect (activity level), Veronica polita ([2]; dose 1000 g/ha) | weed control effect (activity level), Rorippa indica ([3]; dose 1000 g/ha) | weed control effect (activity level), Chenopodiaceae ([4]; dose 1000 g/ha)

CSc1cccc(-c2nnc(C(F)(F)F)cc2O)c1 [Compound 95]
10: weed control effect (activity level), Amaranthus retroflexus ([1]; dose 1000 g/ha) | weed control effect (activity level), Veronica polita ([2]; dose 1000 g/ha) | weed control effect (activity level), Rorippa indica ([3]; dose 1000 g/ha) | weed control effect (activity level), Chenopodiaceae ([4]; dose 1000 g/ha)

CC(C)Sc1ccc(-c2nnc(C(F)(F)F)cc2O)cc1 [Compound 96]
10: weed control effect (activity level), Amaranthus retroflexus ([1]; dose 1000 g/ha) | weed control effect (activity level), Veronica polita ([2]; dose 1000 g/ha) | weed control effect (activity level), Rorippa indica ([3]; dose 1000 g/ha) | weed control effect (activity level), Chenopodiaceae ([4]; dose 1000 g/ha)

CN(C)c1ccc(-c2nnc(C(F)(F)F)cc2O)cc1 [Compound 97]
10: weed control effect (activity level), Amaranthus retroflexus ([1]; dose 1000 g/ha) | weed control effect (activity level), Veronica polita ([2]; dose 1000 g/ha) | weed control effect (activity level), Rorippa indica ([3]; dose 1000 g/ha) | weed control effect (activity level), Chenopodiaceae ([4]; dose 1000 g/ha)

Oc1cc(C(F)(F)F)nnc1-c1ccc(C2CC2Cl)cc1 (stereo not drawn) [Compound 111]
10: weed control effect (activity level), Amaranthus retroflexus ([1]; dose 1000 g/ha) | weed control effect (activity level), Veronica polita ([2]; dose 1000 g/ha) | weed control effect (activity level), Rorippa indica ([3]; dose 1000 g/ha) | weed control effect (activity level), Chenopodiaceae ([4]; dose 1000 g/ha)

CS(=O)(=O)c1ccc(-c2nnc(C(F)(F)F)cc2O)cc1 [Compound 114]
10: weed control effect (activity level), Amaranthus retroflexus ([1]; dose 1000 g/ha) | weed control effect (activity level), Veronica polita ([2]; dose 1000 g/ha) | weed control effect (activity level), Rorippa indica ([3]; dose 1000 g/ha) | weed control effect (activity level), Chenopodiaceae ([4]; dose 1000 g/ha)

Oc1cc(C(F)(F)F)nnc1-c1ccc(OC(F)(F)F)cc1 [Compound 128]
10: weed control effect (activity level), Amaranthus retroflexus ([1]; dose 1000 g/ha) | weed control effect (activity level), Veronica polita ([2]; dose 1000 g/ha) | weed control effect (activity level), Rorippa indica ([3]; dose 1000 g/ha) | weed control effect (activity level), Chenopodiaceae ([4]; dose 1000 g/ha)

CCc1cc(C(F)(F)F)cc(-c2nnc(C(F)(F)F)cc2O)c1C#N [Compound 163]
10: weed control effect (activity level), Amaranthus retroflexus ([1]; dose 2000 g/ha) | weed control effect (activity level), Veronica polita ([2]; dose 2000 g/ha) | weed control effect (activity level), Rorippa indica ([3]; dose 2000 g/ha) | weed control effect (activity level), Chenopodiaceae ([4]; dose 2000 g/ha)
